Reference: patent US6046228A, “Anti-viral pharmaceutical compositions containing saturated 1,2-dithiaheterocyclic compounds and uses thereof” (priority 1999, dated 2000)

Tests used:
Type in all cases: cell-based
HIV-1RF virions = experiment: viral inactivation assay, HeLa-CD4-LTR-βgal cells; settings: FIG. 2(B), in words
Description: HeLa-CD4-LTR-βgal cells (1.5×10^4 /well) were plated in 200 μl volume in flat bottom 96-well microtiter plates for 24 hours, after which the fluid was removed and replaced with drug-treated samples. The HIV-1RF stock was treated with various concentrations NSC 624151 for 2 hours at 37° C., followed by centrifugation (18,000×g for 1 hour at 4° C.) to remove compound from the virus, preparation of serial two-fold dilutions and plating of 200 μl of each dilution in triplicate onto the cell monolayer. The cultures were then incubated for 4 additional days, and monolayers were then fixed for 5 minutes with 2% formaldehyde/2% glutaraldehyde, washed twice with cold PBS and then stained with X-gal substrate for 24 hours at 37° C. The number of blue-stained cells (each indicating a single infectious unit) were then counted in each well and the number of infectious units per ml (mean±SD) of sample were determined values calculated.

HIV-1 WEJO(SI) = experiment: antiviral assay in PBL (p24), clinical isolate WEJO; settings: Human immunodeficiency virus 1, cell-free p24
Description: Initial anti-HIV screening was performed with CEM-SS cells and HIV-1RFusing the XTT cytoprotection assay as previously described (Weislow et al., J. National Cancer Inst. 81: 577-586, (1989)). HIV-1 isolates included common laboratory stains (RF, IIIB and MN), as well as a panel of HIV-1 clinical isolates (Cushman et al., J. Med. Chem. 37: 3040-3050, (1994)). The pyridone-resistant HIV-1A17 isolate (Nunberg et al., J. Virol., 65: 4887-4892 (1991)) was obtained from Emilio Emini at Merck Sharpe and Dohme Laboratories. Phytohemagglutinin-stimulated human peripheral blood lymphocytes (PBLs) and fresh monocyte-macrophage (Mono/MF) cultures were prepared and utilized in antiviral assays as previously described (Rice et al., Proc. Nat'l. Academy Science, USA 90: 9721-9724, (1993)); (Cushman et al., J. Med. Chem. 37: 3040-3050, (1994)). EC50 values for these cultures indicate the drug concentration that provided a 50% reduction in viral p24 production. […] The compounds can be synthesized according to the teachings of Singh et al., Sulfur Letters 8: 107-114, (1988). The 4,5-cis-dihydroxy(1,1-dioxy-1,2,-dithiohexane) compound (NSC 624151) has been abbreviated as 624151 for convenience. […]

[1] = tested on: HIV-1 from latently infected U1 cells; experiment: virus production from TNF-α stimulated latently infected U1 cells; settings: FIG. 3(A); for formation of infectious virus from infected cells: in words
Description: U1 cells latently infected with two copies of HIV-1 proviral DNA per cell (Clous et al., J. Immunol. 142: 431-438, (1989)) were treated with 5 ng/ml tumor necrosis factor-α(TNF-α) for 24 hours to stimulate production of HIV-1 virions, after which various concentrations of 624151 were added to the cultures and incubated for an additional 48 hours. Cultures were analyzed for cell viability by the XTT reduction assay and cells were counted and scored for viability by trypan blue exclusion. Cells pellets were lysed (0.5% Triton X-100, 300 mM NaCl, 50 mM Tris-HCl, pH 7.6, 10 μg/ml each of Leupeptin and aprotinin (Boehringer Mannheim), 1.8 mg/ml iodoacetamide (Sigma Chemical Co., St. Louis, Mo.) and 1.0 mg/ml the protease inhibitor Pefabloc SC (Boehringer Mannheim at 4° C. for 15 min. and then quantitated for viral p24 content by ELISA. Cell-free supernatant samples were collected and analyzed for virus content by p24 ELISA, and infectivity in cultures of 174xCEM cells. Briefly, serial 1/2 dilutions of the supernatant were placed with 5×10^3 174xCEM cells and cultured for 7 days, cell supernatants were analyzed for viral p24 content, and the number of infectious units/ml calculated. In addition, cell free supernatants were centrifuged at 17,000×g for 1 hour at 4° C. to collect virion pellets. Proteins from both the virion and cellular lysates were separated by 4-20% SDS-PAGE (50 μg protein per lane), blotted onto PVDF membranes, reacted with anti-p7 and anti-p24 antisera, and then probed with HRP-conjugated goat anti-rabbit IgG and subsequently viewed with Western Blot Chemiluminescence Reagent (Dupont NEN, Wilmington, Del.).
Once proviral DNA has integrated into the cellular DNA, compounds that act on replicative events during the pre-integrative phase of infection are without effect. However, the zinc fingers as a part of the Pr55^gag and Pr160^gag-pol participate in the post-integrative phase production of progeny infectious virions, and the zinc finger-reactive 624151 should affect those functions. To test this possibility, we evaluated the effects of 624151 on cell viability and the production of viral proteins and infectious virions from U1 cells that latently harbor two copies of HIV-1 proviral DNA. Stimulation of U1 cells with TNF-α results in the production of high levels of p24 and infectious virions.

## O=S1(=O)C[C@H](O)[C@H](O)CS1 (relative stereo) [NSC 624151, cis-1,1-dioxo[1,2]dithiane-4,5-diol]
HIV-1RF virions
  inactivation of viral infectivity: enter intact virions and inactivate the viral infectivity
HIV-1RF virions; listed as 624151
  inactivation of viral infectivity: concentration-dependant inactivation of viral infectivity
HIV-1 WEJO(SI)
  EC50: 7.59 µM
[1]
  formation of infectious virus from infected cells: inhibition of the formation of infectious virus from HIV-1 infected cells
[1]; listed as 624151
  formation of infectious virus from infected cells: prevention of the formation of infectious virus from previously infected cells
[1]; Human immunodeficiency virus 1, 48 h, TNF-α stimulated U1 cells, read-out: concentration (as low as) at which infectious titer of released virions was effectively reduced
  minimal effective concentration: 3 µM
[1]; TNF-α stimulated U1 cells
  levels of intracellular or extracellular viral p24: did not dramatically reduce the levels of intracellular or extracellular viral p24
